Test results reported in the supplement of paper PMC4858399.

Key:
[1] = test system: Caenorhabditis elegans N2; assay: mean nematode size ln(EXT) after 48 h, plate-adjusted (DMSO control set to 6) (ln(EXT), control-adjusted); higher = larger nematodes / less growth inhibition; details: exposure time 48 h
Procedure, shortened: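 Chemical at 0.5–200 µM was tested on synchronised C. elegans N2 L1 larvae grown for 48 h at 20°C in K-medium with killed OP50 and 1% DMSO. Per-worm Biosort extinction, cleared of debris by a growth model, was natural-logged and averaged per well to give mean size. Plates were normalised by subtracting the vehicle control mean and adding 6.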

[2] = test system: Caenorhabditis elegans N2; assay: lowest effective concentration for larval growth inhibition (size below effect threshold); higher = less potent; details: exposure time 48 h
Procedure, shortened: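 Chemical exposure ran for 48 h at 20°C: 50 C. elegans N2 L1 larvae per 96-well in K-medium with killed bacteria, 1% DMSO and 0.5, 1, 5, 10, 50, 100 or 200 µM chemical. Extinction of each worm, read as size on the Biosort, was log-transformed and averaged by well. The lowest effective concentration is the first dose whose plate-adjusted mean size is below a fixed value and remains so at all higher doses; the value is 5.665.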

Structure (SMILES)	mean nematode size ln(EXT) (ln) ([1]; 0.5 µM)	mean nematode size ln(EXT) (ln) ([1]; 1 µM)	mean nematode size ln(EXT) (ln) ([1]; 5 µM)	mean nematode size ln(EXT) (ln) ([1]; 10 µM)	mean nematode size ln(EXT) (ln) ([1]; 50 µM)	mean nematode size ln(EXT) (ln) ([1]; 100 µM)	mean nematode size ln(EXT) (ln) ([1]; 200 µM)	lowest effective concentration [2]
CCNc1nc(NC(C)C)nc(SC)n1 [Ametryn]	6.09	6.82	6.12	6.27	6.45	6.38	5.72	> 200 µM
CC(=O)Oc1ccccc1C(=O)O [Aspirin]	5.74	5.85	5.81	6.1	5.89	5.89	5.71	> 200 µM
COC(=O)NS(=O)(=O)c1ccc(N)cc1 [Asulam]	6.06	5.99	5.51	6.04	5.49	5.99	5.83	> 200 µM
CCNc1nc(Cl)nc(NC(C)C)n1 [Atrazine]	5.54	5.72	5.73	5.07	6.06	6.06	5.94	> 200 µM
CCCCC(CC)COC(=O)CCCCCCCC(=O)OCC(CC)CCCC (centres undefined) [Azelaic acid di(2-ethylhexyl) ester]	5.73	5.62	5.69	5.67	5.23	5.44	5.67	> 200 µM
ClC(Cl)c1ccccc1 [Benzal chloride]	5.81	5.83	5.86	5.78	5.85	5.89	5.68	> 200 µM
Nc1ccc(-c2ccc(N)cc2)cc1 [Benzidine]	6.06	6.02	5.91	5.98	5.81	5.75	5.97	> 200 µM
O=C(O)c1ccccc1 [Benzoic acid]	5.63	5.77	5.73	5.77	5.72	5.73	6.04	> 200 µM
OCc1ccccc1 [Benzyl alcohol]	5.85	5.94	5.9	5.84	5.95	5.93	5.81	> 200 µM
O=C(O)c1ccccc1C(=O)OCc1ccccc1 [Benzyl hydrogen phthalate]	5.72	5.73	5.79	5.84	5.73	5.67	5.74	> 200 µM
CCCCC(CC)COC(=O)CCCCC(=O)OCc1ccccc1 (centres undefined) [Benzyloctyl adipate (BOA)]	5.99	5.97	6.03	6.02	5.92	5.77	5.89	> 200 µM
COc1ccc(-c2ccccc2)cc1NNC(=O)OC(C)C [Bifenazate]	5.62	5.82	5.8	5.93	5.25	5.68	5.87	> 200 µM
ClCCOCCCl [Bis(2-chloroethyl)ether]	5.78	6.14	5.94	5.96	5.8	5.86	5.72	> 200 µM
COCCOCCOC [Bis(2-methoxyethyl) ether]	5.88	5.82	5.78	5.69	5.85	5.83	5.8	> 200 µM
OB(O)O [Boric acid]	6.06	6.07	6.08	6.13	6.14	6.18	5.95	> 200 µM
CCC(C)n1c(=O)[nH]c(C)c(Br)c1=O (centres undefined) [Bromacil]	6.06	6.23	6.18	6.3	6.1	6.23	5.81	> 200 µM
N#Cc1cc(Br)c(O)c(Br)c1 [Bromoxynil]	5.85	5.95	5.86	5.91	5.84	5.95	5.67	> 200 µM
CS(=O)(=O)OCCCCOS(C)(=O)=O [Busulfan]	5.98	5.93	5.94	5.95	5.98	5.94	5.8	> 200 µM
C=CCOC(=O)C(C)(C)OC(=O)c1cc(-n2c(=O)cc(C(F)(F)F)n(C)c2=O)ccc1Cl [Butafenacil]	5.9	5.89	5.87	5.88	5.84	5.92	5.94	> 200 µM
CCOC(=O)CCC(=O)OCC [Butanedioic acid, diethyl ester]	5.83	5.91	5.87	5.89	5.9	5.98	5.75	> 200 µM
CCCC(=O)O [Butanoic acid]	5.86	5.86	5.86	5.86	5.94	6	5.71	> 200 µM
CCCCOC(=O)c1ccccc1C(=O)OCc1ccccc1 [Butyl benzyl phthalate]	5.93	5.94	6.01	5.98	6.17	5.76	5.67	> 200 µM
CCCCc1ccccc1 [Butylbenzene]	5.65	5.67	5.69	5.67	5.53	5.6	5.75	> 200 µM
Cn1c(=O)c2c(ncn2C)n(C)c1=O [Caffeine]	5.87	5.94	5.87	5.91	5.94	5.85	5.75	> 200 µM
O=C1CCCCCN1 [Caprolactam]	5.8	5.81	5.84	5.87	5.88	5.55	5.68	> 200 µM
NC(=O)N1c2ccccc2C=Cc2ccccc21 [Carbamazepine]	5.86	5.85	5.88	5.83	5.88	5.85	5.67	> 200 µM
CNC(=O)Oc1cccc2ccccc12 [Carbaryl]	5.78	5.79	5.6	5.71	5.83	5.72	5.67	> 200 µM
CC1=C(C(=O)Nc2ccccc2)SCCO1 [Carboxin]	5.77	5.9	5.83	5.85	5.84	5.62	5.9	> 200 µM
